Assay: xn = mol fraction of the nth substance listed

CCOCCO + CCCCCO
298.15 K, 101 kPa
Conditions	viscosity [mPa·s]
x1 = 0.098	3.167
x1 = 0.1965	2.864
x1 = 0.2954	2.619
x1 = 0.3947	2.431
x1 = 0.4945	2.283
x1 = 0.5947	2.178
x1 = 0.6953	2.099
x1 = 0.7964	2.027
x1 = 0.898	1.954

CCOCCO + C1CCCCC1
viscosity [mPa·s]
Conditions	298.15 K	303.15 K	308.15 K	313.15 K
101 kPa, x1 = 0.0542	0.903	–	0.755	–
101 kPa, x1 = 0.1507	0.92	–	0.775	–
101 kPa, x1 = 0.2541	0.952	–	0.805	–
101 kPa, x1 = 0.3508	0.996	–	0.841	–
101 kPa, x1 = 0.452	1.057	–	0.888	–
101 kPa, x1 = 0.5	1.093	–	0.915	–
101 kPa, x1 = 0.5497	1.135	–	0.945	–
101 kPa, x1 = 0.6534	1.24	–	1.019	–
101 kPa, x1 = 0.7527	1.368	–	1.105	–
101 kPa, x1 = 0.8492	1.524	–	1.206	–
101 kPa, x1 = 0.9552	1.741	–	1.341	–
101.33 kPa, x1 = 0.0993	0.864	0.787	0.724	0.663
101.33 kPa, x1 = 0.2013	0.91	0.827	0.755	0.696
101.33 kPa, x1 = 0.2968	0.961	0.875	0.798	0.731
101.33 kPa, x1 = 0.4007	1.035	0.938	0.852	0.786
101.33 kPa, x1 = 0.495	1.112	1.004	0.884	0.837
101.33 kPa, x1 = 0.5998	1.211	1.093	0.992	0.899
101.33 kPa, x1 = 0.6974	1.341	1.2	1.085	0.977
101.33 kPa, x1 = 0.808	1.496	1.341	1.206	1.094
101.33 kPa, x1 = 0.9006	1.714	1.527	1.371	1.231

CC(C)CCO + CC(C)CC(C)(C)C
298.15 K, 101 kPa
Conditions	viscosity [mPa·s]
x2 = 0.0685	3.063
x2 = 0.1336	2.496
x2 = 0.1409	2.428
x2 = 0.2215	1.908
x2 = 0.2866	1.576
x2 = 0.311	1.471
x2 = 0.352	1.326
x2 = 0.4007	1.178
x2 = 0.4038	1.175
x2 = 0.4505	1.051
x2 = 0.4937	0.967
x2 = 0.5321	0.896
x2 = 0.6132	0.772
x2 = 0.6488	0.723
x2 = 0.7255	0.642
x2 = 0.782	0.595
x2 = 0.818	0.564
x2 = 0.857	0.544
x2 = 0.9105	0.512
x2 = 0.9545	0.494

CC(C)CCO + NC=O
298.1 K, 101 kPa
Conditions	viscosity [mPa·s]
x2 = 0.0932	3.579
x2 = 0.1809	3.571
x2 = 0.2579	3.687
x2 = 0.3292	3.799
x2 = 0.4564	3.993
x2 = 0.5661	4.174
x2 = 0.6617	4.273
x2 = 0.7463	4.252
x2 = 0.8205	4.071
x2 = 0.8871	3.8
x2 = 0.9462	3.567

CCOCCO + NC1CCCCC1
308.15 K, 101 kPa
Conditions	viscosity [mPa·s]
x1 = 0.1163	1.345
x1 = 0.2284	1.366
x1 = 0.3366	1.391
x1 = 0.4411	1.419
x1 = 0.5421	1.437
x1 = 0.6398	1.457
x1 = 0.7342	1.459
x1 = 0.8257	1.455
x1 = 0.9142	1.45

CC12CCC(CC1=O)C2(C)C (stereo unspecified) + CCCCCCCCCC(=O)O
101.33 kPa, x2 = 0.7
Conditions	viscosity [mPa·s]
298.15 K	10.76
303.15 K	9.184
308.05 K	7.889
313.05 K	6.866
318.15 K	6.143
323.05 K	5.9

CCOCCO + CCCCCCCCCC
viscosity [mPa·s], 101.33 kPa
Conditions	x1 = 0.0958	x1 = 0.2018	x1 = 0.2985	x1 = 0.4011	x1 = 0.4984	x1 = 0.5978	x1 = 0.6989	x1 = 0.7994	x1 = 0.8984
298.15 K	0.828	0.851	0.905	0.962	1.046	1.128	1.223	1.345	1.512
303.15 K	0.767	0.785	0.827	0.879	0.946	1.016	1.108	1.209	1.354
308.15 K	0.709	0.725	0.766	0.806	0.866	0.929	1.001	1.096	1.223
313.15 K	0.661	0.681	0.705	0.744	0.797	0.844	0.921	0.992	1.103

CCCCCCCCCCOC(C)=O + CCCCCC
303.15 K, 101.3 kPa
Conditions	viscosity [mPa·s]
x1 = 0.2001	0.4713
x1 = 0.4057	0.7528
x1 = 0.5086	0.9289
x1 = 0.5995	1.116
x1 = 0.7551	1.473

CC(C)CCO + ClCCCl
viscosity [mPa·s], 101 kPa
Conditions	x1 = 0.1272	x1 = 0.2201	x1 = 0.3264	x1 = 0.4302	x1 = 0.5765	x1 = 0.6639	x1 = 0.8049	x1 = 0.888
303.15 K	0.743	0.797	0.9054	1.029	1.302	1.532	2.081	2.51
313.15 K	0.6478	0.6865	0.7649	0.8579	1.065	1.23	1.619	1.91
323.15 K	0.5786	0.603	0.665	0.7365	0.8917	1.015	1.309	1.507

CCCCCCCCBr + ClC(Cl)(Cl)Cl
101 kPa
Conditions	viscosity [mPa·s]
293.15 K, x1 = 0.0483	0.9339
293.15 K, x1 = 0.0969	0.9701
293.15 K, x1 = 0.1945	1.037
293.15 K, x1 = 0.3916	1.173
293.15 K, x1 = 0.5916	1.295
293.15 K, x1 = 0.7943	1.404
303.55 K, x1 = 0.0608	0.87
303.55 K, x1 = 0.0978	0.893
303.55 K, x1 = 0.1964	0.955
303.55 K, x1 = 0.3775	1.08
303.55 K, x1 = 0.5801	1.18
303.55 K, x1 = 0.8407	1.307
313.65 K, x1 = 0.0482	0.7513
313.65 K, x1 = 0.0973	0.7763
313.65 K, x1 = 0.1952	0.8276
313.65 K, x1 = 0.3945	0.9359
313.65 K, x1 = 0.5771	1.022
313.65 K, x1 = 0.7616	1.097

c1ncncn1 + O
viscosity [mPa·s], 101 kPa
Conditions	x1 = 9.04e-05	x1 = 0.0001902	x1 = 0.0002698	x1 = 0.0003238	x1 = 0.0005432	x1 = 0.0005796	x1 = 0.0006388
293.15 K	0.9241	0.9097	0.8902	0.8869	0.8968	0.8957	0.8944
298.15 K	0.8187	0.8008	0.7878	0.7742	0.8122	0.8002	0.7864
303.15 K	0.7307	0.7212	0.7162	0.71	0.7263	0.7135	0.6979

Cc1cccc(Cl)c1 + OC1CCCCC1
303.15 K, 101 kPa
Conditions	viscosity [mPa·s]
x2 = 0.1126	5.006
x2 = 0.222	9.158
x2 = 0.3285	13.26
x2 = 0.4321	17.37
x2 = 0.533	21.44
x2 = 0.6313	25.48
x2 = 0.727	29.41
x2 = 0.8203	33.31
x2 = 0.9113	37.2

From the CheMixHub viscosity set
